Patent US5756491A, “Antiviral cobalt-organic compounds” (priority 1991, dated 1998)
Several values for one entry are separate records, joined by “and”; a condition that tells them apart may be missing. Equal values may be shown once.

How the values were obtained:
HSV-2 (MS strain) [1] = experiment: External genital lesion development in primary genital HSV-2 infection of guinea pigs; type: in vivo, Female Hartley strain guinea pigs; set-up: key to Lesion Score-Day Area Under Curve: area under 0-5+ lesion score vs day curve (score-days); key to Mean Peak Lesion Score: lesion severity on 0-5+ scale
Description: (§1) A series of studies were carried out to compare the activity of inventive antiviral Compounds 23, 76, and 82 in a primary genital HSV-2 infection of guinea pigs. The experiments were placebo-controlled and uninfected animals were treated with three concentrations of each of the preparations to assess skin irritation and determine the maximum tolerated dose.
(§2) The MS strain of HSV-2 was utilized for the experimental animal infection. Female Hartley strain guinea pigs (Charles River Breeding Laboratories, Kingston, N.Y.) weighing 250-300 g were inoculated intravaginally with 1.4×10^5 plaque forming units of HSV-2 one hour after being swabbed for the removal of vaginal secretions.
(§3) Groups of 10 infected guinea pigs were treated topically as stated above with 20 mg/ml (the maximum tolerated dose) of each compound beginning 6 h or 24 h after inoculation with HSV-2.
To determine the effect of therapy on the development and spread of external genital lesions, lesion severity was scored on a 0-5+ scale through the primary infection (21 days). Mean peak lesion scores and the areas under the lesion score-day curves were calculated and analyzed.
(§4) The number of animals infected over the number inoculated, lesion score-day areas and virus titer-day areas under the curve, peak lesion scores and peak virus titers between untreated and placebo-treated or placebo-treatedand drug-treated animals were compared using the Mann-Whitney U rank sum test. A p-value of 0.05 or less was considered significant.

HSV-2 (MS strain) [2] = experiment: Vaginal virus replication in primary genital HSV-2 infection of guinea pigs; type: in vivo, Female Hartley strain guinea pigs
Description: as §1, §2, §3
To determine the effect of treatment on vaginal virus replication, swabs of vaginal secretions were obtained on days 1, 3, 5, 7, and 10 after HSV-2 inoculation, placed in a tube containing 2.0 ml of media, vortexed and frozen at -70° until titrated for HSV-2. When all samples were collected, they were thawed, diluted serially and HSV-2 titers were determined using rabbit kidney cells in a microtiter CPE assay. Mean peak virus titers and areas under the virus titer-day curves were calculated and analyzed.
as §4

HSV-1 McKrae Strain = experiment: Direct virucidal efficacy against HSV-1 on HFF monolayers; type: cell-based; conditions: for virucidal efficacy (HSV-1 titer): Experiment 1 (Table 2), 24 h PI; for effective virucidal concentration IC50 / effective virucidal concentration IC90: HSV-1
Description: HSV-1 McKrae Strain was diluted to a final concentration of 10^5 PFU/ml in minimal essential medium (MEM). Hereinafter, this dilution is referred to as the HSV-1 Suspension for convenience.
(§5) With sufficient stirring, all the compounds completely dissolved.
Each of the drug solutions were mixed with the HSV-1 Suspension in a 1:1 ratio. The drug and HSV-1 Suspension mixture was incubated at 37° C. for thirty minutes with agitation every ten minutes. After the incubation, fifty microliter aliquots were overlaid onto triplicate confluent human foreskin fibroblast (HFF) cell monolayers. The inoculum was absorbed for thirty minutes and then a medium containing the appropriate drug concentration in MEM was added to the monolayers to a final volume of 0.5 milliliters per culture-well. The monolayers were incubated at 37° C. The developing HSV-1 Cytopathology was monitored daily for two days by inverted light microscopy. Titers were calculated by multiple regression analysis. All data is presented as the average PFU/ml reduction at 24 and/or 48 hours after inoculation (PI).
1. HSV-1 inoculated, non-compound treated HFF monolayers were included as "positive controls"; and […]

[3] = test system: human foreskin fibroblast (HFF) cell monolayers; experiment: Toxicity effects controls: sham-inoculated compound-treated HFF monolayers; type: cell-based; conditions: Experiment 1 (Table 1); note: key: +: toxic; -: no toxicity; ±: mild toxicity; T: toxicity effects interfered with CPE rating
Description: as §5
In the tables, the symbols have the meaning indicated: […]

HFF cells = experiment: Cell proliferation assay; type: cell-based, human; conditions: rapidly growing cells
Description: Twenty-four hours prior to assay, HFF cells are seeded in 6-well plates at a concentration of 2.5×10^4 cells per well in MEM containing 10% FBS. On the day of the assay, drugs are diluted serially in MEM containing 10% FBS at increments of 1:5 covering a range from 100 μg/ml to 0.03 μg/ml. […] The media from the wells is then aspirated and 2 ml of each drug concentration is then added to each well. The cells are then incubated in a Co2 incubator at 37° C. for 72 h. At the end of this time, the media-drug solution is removed and the cells washed. […] The cell-media mixture is then pipetted up and down vigorously to break up the cell suspension and 0.2 ml of the mixture is added to 9.8 ml of Isoton III and counted using a Coulter Counter. Each sample is counted three times with three replicate wells per sample.

RE strain HSV-1 [4] = experiment: HSV-1 recovery from tear film, cornea and trigeminal ganglia of treated rabbits; type: in vivo, NZW rabbit
Description: The specified number of NZW rabbits (1.5-2.0 kg) were used. Animals were received at least two days prior to inoculation to allow them to accommodate to the conditions in the vivarium facility. This conditioning of the animals prior to inoculation minimizes animal variability. After the accommodation, the animals received a slit-lamp examination to exclude any animals with pre-existing anterior segment ocular defects. Animals were bi-laterally inoculated by intrastromal injection of 10^5 PFU RE strain HSV-1. The animals were then replaced individually into cages.
[…] This was carried out by obtaining tear film by swabbing the lower and upper conjunctival sacs and retaining the swab in the nasal fornix for 10 seconds. The swabs were eluted individually in HBSS. 50 μl aliquots of the virus-HBSS eluate were absorbed under confluent HFF cell monolayers for 5 minutes. The monolayers were hydrated with MEM, incubated at 37° C. and observed daily for 1 to 2 weeks to detect developing cytopathology consistent with HSV infection (HSV CPE).
(§6) On day 10 PI, the animals were sacrificed, the corneal epithelium was scraped from the eyes and epithelial and corneal stromal cultures were preformed on HFF cell monolayers. The separation of epithelial virus from deeper stromal virus infection allows for analysis of HSV in these distinct corneal layers. Corneal epithelial and stromal co-cultures were evaluated daily by inverted light microscopy.
At sacrifice, trigeminal ganglia were removed, washed in HBSS, minced and floated over duplicate HFF cell monolayers. The cell co-cultures were monitored by inverted light microscopy for 2 weeks. Negative cultures were blind passaged twice at 7 day intervals. Detection of HSV CPE in the whole-cell co-cultures was scored either positive or negative. HSV recovery from inventive compound-treated, TFT-treated and placebo-treated trigeminal ganglia was compared and differences in recovery rates analyzed.
as §6, with “7” for “10”, “performed” for “preformed”

RE strain HSV-1 [5] = experiment: Topical efficacy in RE strain HSV-1-induced stromal keratitis in the rabbit; type: in vivo, NZW rabbit
Description: The following examples describe topical ocular evaluation of the inventive compounds during RE strain HSV-1-induced stromal keratitis in the rabbit. These evaluations included analysis of the topical efficacy of both the inventive compounds alone, or, in certain instances, in combination with trifluorothymidine (TFT). The evaluation was carried out by the combined analysis of both clinical and virological (HSV-1 recovery) parameters. The specified number of NZW rabbits (1.5-2.0 kg) were used. Animals were received at least two days prior to inoculation to allow them to accommodate to the conditions in the vivarium facility. This conditioning of the animals prior to inoculation minimizes animal variability. After the accommodation, the animals received a slit-lamp examination to exclude any animals with pre-existing anterior segment ocular defects. Animals were bi-laterally inoculated by intrastromal injection of 10^5 PFU RE strain HSV-1. The animals were then replaced individually into cages. On day number three post-inoculation (PI), the animals were evaluated by slit-lamp microscopy. Corneal stromal, iris and conjunctival disease were graded on an increasing scale of severity from 0+ to 4+. After evaluation, the animals were divided into a specified number of groups each containing an equal number of animals based on a matched corneal stromal involvement. Topical therapy was initiated immediately after animal groupings. All animals received daily slit-lamp evaluations from day 3 through 7 PI. The ocular HSV-1 induced disease severity was recorded daily. […] Differences in disease resolution and development of stromal alterations are statistically analyzed. Virus recovery during and after topical therapy was compared. The topical efficacy of Compounds 23 and 96 on stromal HSV-1 infection in the rabbit model of stromal keratitis was evaluated. All animals received daily slit lamp evaluations from day 3 through day 7 and on days 9 and 10 PI. The ocular HSV-1-induced disease severity was recorded daily. The topical efficacy of Compounds 23, 96 and 82 on stromal HSV-1 infection in the rabbit model of stromal keratitis was evaluated. All animals received daily slit lamp evaluations for day 3 through day 7 PI. The ocular HSV-1-induced disease severity was recorded daily. The topical efficacy of Compounds 23 and 96 in combination with TFT on stromal HSV-1 infection in the rabbit model of stromal keratitis was evaluated. Groups 1, 2 and 3 each have 5 animals for a total of 10 eyes per combination therapy. This allowed minimization of individual animal variability and performance of a statistical analysis on the results of the combination therapies. Groups 3, 4 and 5 have 2 animals each. These single-agent therapies were used to verify previously reported data on the efficacy of these compounds. The compounds are used at a lower frequency of delivery to match the dosing regimen of the combination-agent group. Consequently, the study also provides comparative information on Compounds 23 and 96 as a lower frequency of topical administration (4 times per day vs. 9 times per day in previous studies).

## CC([O-])=CC(C)=NCCN=C(C)C=C(C)[O-].[Br-].[Co+3].c1ccncc1.c1ccncc1 [Compound 76]
HSV-2 (MS strain) [1]; 20 mg/ml, started +6h
  Lesion Score-Day Area Under Curve: 4.4
  Mean Peak Lesion Score: 0.4
  P-Value for Mean Peak Lesion Score: < 0.001
HSV-2 (MS strain) [1]; 20 mg/ml, started +24h
  Lesion Score-Day Area Under Curve: 37.2
  Mean Peak Lesion Score: 3.3
HSV-2 (MS strain) [1]; started +24 h, vs untreated control
  lesion AUC difference vs untreated control animals: not significant
HSV-2 (MS strain) [2]; 20 mg/ml, started +6h
  # Infected/# Inoculated: 5/10
  Mean Peak Virus Titer: 1.0
  P-Value for Mean Peak Virus Titer: < 0.001
  Virus Titer-Day Area Under Curve: 2.9
HSV-2 (MS strain) [2]; 20 mg/ml, started +24h
  # Infected/# Inoculated: 10/10
  Mean Peak Virus Titer: 4.3
  Virus Titer-Day Area Under Curve: 17.7
HSV-2 (MS strain) [2]; treatment beginning 6 h after infection
  infectivity rate: 50%
HSV-1 McKrae Strain; 0.001 mg/ml
  virucidal efficacy (HSV-1 titer): 10^5 PFU/ml
HSV-1 McKrae Strain; .01 mg/ml
  virucidal efficacy (HSV-1 titer): 10^3 PFU/ml
HSV-1 McKrae Strain; Experiment 1 (Table 3)
  effective virucidal concentration IC50: 10 µg/mL
  effective virucidal concentration IC90: 100 to 1000 µg/mL
HSV-1 McKrae Strain; Experiment 2 (Table 6)
  effective virucidal concentration IC50: 10 µg/mL
  effective virucidal concentration IC90: 100 to 1000 µg/mL
[3]; 24 h PI, 0.001 mg/ml
  toxicity effects: -
[3]; 24 h PI, 0.01 mg/ml
  toxicity effects: -
[3]; 24 h PI, 0.1 mg/ml
  toxicity effects: -
[3]; 48 h PI, 0.001 mg/ml
  toxicity effects: -
[3]; 48 h PI, 0.01 mg/ml
  toxicity effects: -
[3]; 48 h PI, 0.1 mg/ml
  toxicity effects: -
[3]; 48 h PI, 1 mg/ml
  toxicity effects: +
[3]; 48 h PI, 10 mg/ml
  toxicity effects: +

## O=c1[nH]c(=O)n([C@@H]2O[C@H](CO)[C@@H](O)[C@@H]2F)cc1I [FIAU, 2'-fluoro-5-iodo-arabinosyl-uracil]
HFF cells
  toxicity IC50, cell proliferation: 8.4 MCG/ML and 3.3 MCG/ML

## O=c1[nH]c(=O)n([C@H]2C[C@H](O)[C@@H](CO)O2)cc1C(F)(F)F [TFT, trifluorothymidine]
RE strain HSV-1 [4]; Example 3 (Table 22)
  HSV-1 recovery, corneal epithelium (C.E.): 60%
  HSV-1 recovery, corneal stroma (C.S.): 60%
  HSV-1 recovery, trigeminal ganglia (T.G.): 60%
RE strain HSV-1 [4]; Example 3 (Table 22), day 3 PI
  HSV-1 recovery, tear film (positive samples of total): 100%
RE strain HSV-1 [4]; Example 3 (Table 22), day 5 PI
  HSV-1 recovery, tear film (positive samples of total): 80%
RE strain HSV-1 [4]; Example 3 (Table 22), day 7 PI
  HSV-1 recovery, tear film (positive samples of total): 30%
RE strain HSV-1 [4]; Example 3 (Table 22), day 9 PI
  HSV-1 recovery, tear film (positive samples of total): 0%
RE strain HSV-1 [4]; Example 5 (Table 23)
  HSV-1 recovery, corneal stroma: 70%
RE strain HSV-1 [4]; Example 5 (Table 23), column 1
  HSV-1 recovery (positive cultures per total): 0%
RE strain HSV-1 [4]; Example 5 (Table 23), column 3
  HSV-1 recovery (positive cultures per total): 100%
RE strain HSV-1 [4]; Example 5 (Table 23), column 5
  HSV-1 recovery (positive cultures per total): 90%
RE strain HSV-1 [4]; Example 5 (Table 23), column 7
  HSV-1 recovery (positive cultures per total): 70%
RE strain HSV-1 [5]; Example 3, all eyes, FIG. 1, 1 mg/ml (TFT 0.1%), 9x/day, 5 days
  efficacy ranking during stromal HSV-1 infection: Compound 96>>Compound 23>TFT>Placebo
RE strain HSV-1 [5]; Example 4, FIG. 2
  efficacy ranking, average stromal disease scores: Compound 96>Compound 82>Compound 23>TFT=Placebo
RE strain HSV-1 [5]; Example 5, FIG. 5, initial stromal disease <0.5 on day 3 PI
  effect on stromal disease severity/progression: ineffective in reducing the stromal disease severity
RE strain HSV-1 [5]; Example 5, FIG. 7, score <0.5 on day 3 PI, 4 times per day
  effect on development and progression of stromal disease: ineffective in reducing the development and progression of stromal disease
